# Measured values: patent US20110061129A1 (priority 2008, published 2011)
# How the values were obtained:
# [1] = system: Saccharomyces cerevisiae homozygous diploid YKO strains and parental strain BY4743; format: cell-based
# [2] = system: total translation in BY4743 and YKO strains; format: cell-based, Saccharomyces cerevisiae
# [3] = system: Saccharomyces cerevisiae homozygous diploid YKO strains and parental strain BY4743; format: cell-based; remark: listed apart in the source
# [4] = system: mitochondrial translation in BY4743 and YKO strains; format: cell-based, Saccharomyces cerevisiae
smiles,measurement,setting,value
"C/C=C\C(=O)O[C@@H]1C[C@H]2O[C@@H]3C=C(C)C(=O)C[C@]3(C)[C@]1(C)[C@]21CO1 [T-cin, trichothecin]",effect of the 2 μM screening concentration on growth (parental strain),[1],non-lethal
same,inhibition of the cytosolic translation rate of BY4743,[2],80-90%
same,effect of the screening level of toxin on the parental strain,[3],lethal
same,effect on mitochondrial translation,[4],able to inhibit mitochondrial translation
